The record followed here is US10519125B2, “Flavagline derivatives” (PIERRE FABRE MEDICAMENT, priority 2014, dated 2019).

For data set [1], the system named is HCT116 line (human colon cancer cell line). As to the kind of experiment: Antiproliferative (cytotoxic) activity on HCT116 line, ATPLite cell viability, 72 hours. In kind it is cell-based. To be noted: HCT-116, HCT116, 72 hours after addition, ATPLite, read-out: HCT116 (EC50). How it is done: 2.1. Antiproliferative Activity of the Compounds According to the Invention (IC50 in M)
Culture of Lines and Measurement of Cell Viability:
The HCT116 line (ATCC, CCL-247) derived from colon cancer was cultured in MEM (Minimum Essential Medium Eagle) supplemented with 2 mM L-glutamine (Sigma, G7513), 5% fetal calf serum (Sigma, F7524) and antibiotics (Sigma, A59-55). The protocol for determining cytotoxic activity consists in seeding cells on 96-well plates (Perkin Elmer, 6005668) at a density of 1500 cells per well. After 24 hours of incubation, the test compound is applied in each well, using serial dilutions in the solvent dimethylsulfoxide (DMSO) (Sigma, D8418), from 10 mM stock solutions in 100% DMSO. Each dilution was added to the cells 24 hours after seeding. Under these conditions, the final solvent concentration is 0.1% DMSO. A reading of cell proliferation was carried out 72 hours after addition of the products with the ATPLite™ kit (Perkin Elmer, 6016947) and according to the manufacturer's recommendations. The analysis of the proliferation results was carried out by comparison with conditions where only the carrier solvent (culture medium, 0.1% DMSO) was added to the cells. The dose-response curves obtained were analyzed using the PRISM 4.03 software (GraphPad Software Inc.), or by an equivalent analytical method, to determine the concentration of each compound which inhibits 50% of cell proliferation (EC50).
By way of example, the cytotoxic properties of several compounds of the invention evaluated on the HCT116 line (human colon cancer cell line) are reported in Table 1.

In data set [2] the test system is MDA-MB-231 human tumor xenograft. The data set is described as follows: Antitumor activity, subcutaneous MDA-MB-231 breast cancer xenografts in SCID mice. Particulars: for Activity: q1d5 × 3, MDA-MB-231; for Deaths (%): q1d5 × 3, SCID mice. In kind it is in vivo. How it is done: Subcutaneous xenografts were established with MDA-MD-231 breast cancer cells (ATCC: HTB-26) in SCID mice (Harlan, U.K.). The animals were treated and cared after in accordance with the Guide For the Care and Use of Laboratory Animals (National Research Council, 1996) and with European Directive 86/609/EEC, under the supervision of a staff expert authorized to conduct experimental studies with laboratory animals.
All the experiments were conducted pursuant to French and local regulations (Department of Veterinary Services, Haute-Garonne, Toulouse) according to the directives of an ethics committee, based on the UKCCCR Guidelines for the Welfare of Animals in Experimental Neoplasia, as indicated above. The implantation of MDA-MB-231 human tumor fragments is carried subcutaneously in the flanks of SCID mice using a trocar and, for the study of tumor growth, the tumors are allowed to reach a median volume of 70-130 mm^3 before starting the studies.
After randomization in the treatment cages, the inhibitors were administered intravenously according to a g1d5×3 treatment scheme (5 injections per week for 3 weeks). The mice were monitored and weighed daily. The tumors were measured with a slide caliper and the tumor volumes (mm^3) were estimated using the following formula: volume=0.5 (length×width^2). Each experimental group consists of 5 individuals. The efficacy of the treatment was evaluated by analysis of the measurement of the median volume of the treated tumors compared with the median volume of the tumors receiving only carrier (control). The T/C evaluation criterion corresponds to: [(median volume of the treated group, T/median volume of the control group, C)×100]. This T/C ratio is expressed as a percentage. The optimal T/C value corresponds to the ratio which reflects the maximum inhibition of growth obtained during the study. The maximum gains or losses of weight, expressed as a percentage of the initial weight of the animals, as well as the percentage of drug-related deaths (i.e., the percentage of treated animals that died before the assessment) were used to provide an evaluation of the toxicity of the compounds. In accordance with the NCI (National Cancer Institute) criterion, a dose is deemed toxic if it induces weight loss greater than −20% relative to the initial weight of the mouse or if it induces more than 20% deaths (Corbett et al. J Exp Ther Oncol 1996, 1:95-108).

The mark [3] stands for this setting: Mus musculus, MDA-MB-231, iv, read-out: Opt. T/C (%).

For orientation: EC50 means the concentration that produces a half-maximal response. Consider `COc1ccc([C@@]23Oc4cc(OC)cc(OC)c4[C@]2(O)[C@@H]2OC(=S)N[C@@H]2[C@H]3c2ccccc2)cc1` (racemic) [Compound 46, rac-(3aR,4R,4aR,9bS,9cR)-9b-hydroxy-7,9-dimethoxy-4a-(4-methoxyphenyl)-4-phenyl-3,3a,4,4a,9b,9c-hexahydro-2H-benzofuro[3′,2′:3,4]cyclopenta[1,2-d]oxazole-2-thione], for which, in data set [1], the EC50 came out at 2.59 nM. Also, in data set [2] (1.4 mg/kg intravenously), the outcome was Active and the “Deaths (%)” value stood at 0%. The response vs control in vivo at 1.4 mg/kg in data set [2] (setting [3]) turned out to be 39%.

In the case of `COC(=O)[C@H]1[C@@H](O)[C@@]2(O)c3c(OC)cc(OCCN)cc3O[C@@]2(c2ccc(OC)cc2)[C@@H]1c1ccccc1` (racemic) [Compound 2, rac-(1R,2R,3S,3aR,8bS)-methyl 6-(2-aminoethoxy)-1,8b-dihydroxy-8-methoxy-3a-(4-methoxyphenyl)-3-phenyl-2,3,3a,8b-tetrahydro-1H-cyclopenta[b]benzofuran-2-carboxylate], the concentration for a half-maximal effect (EC50) in data set [1] is 4.03 nM. Besides, in data set [2] (0.2 mg/kg intravenously), the outcome was Active and the “Deaths (%)” value is reported as 0%. Also, in data set [2] (setting [3]), the response vs control in vivo at 0.2 mg/kg was 37%.

In the case of `COC(=O)[C@H]1[C@@H](O)[C@@]2(O)c3c(OC)cc(O[C@@H]4O[C@@H]([C@H](O)CO)CO[C@H]4OC)cc3O[C@@]2(c2ccc(OC)cc2)[C@@H]1c1ccccc1` [silvestrol, reference compound], in data set [1], the EC50 turned out to be 2.46 nM. For the same compound, the Activity entry in data set [2] (0.2 mg/kg intravenously) is on record as “No activity”; in data set [2] (0.5 mg/kg intravenously) it was “No activity”; in data set [2] (0.7 mg/kg intravenously), “Toxic”; in data set [2] (1 mg/kg intravenously), “Toxic”; in data set [2] (1.4 mg/kg intravenously), “Toxic”. Besides, the “Deaths (%)” value in data set [2] (0.2 mg/kg intravenously) is listed as 0%; in data set [2] (0.5 mg/kg intravenously) it was 0%; in data set [2] (0.7 mg/kg intravenously), 40%; in data set [2] (1 mg/kg intravenously), 100%; in data set [2] (1.4 mg/kg intravenously) it was 100%. Besides, the response vs control in vivo at 0.2 mg/kg in data set [2] (setting [3]) is 92%. In data set [2] (setting [3]), the response vs control in vivo at 0.5 mg/kg stood at 83%. Further, in data set [2] (setting [3]), the response vs control in vivo at 0.7 mg/kg is 63%. Moreover, the toxicity result in data set [2] (above a dose of 0.7 mg/kg) was “highly toxic”. Moreover, the antitumor activity entry in data set [2] (below a dose of 0.7 mg/kg) was “no antitumor activity”.

Regarding `COc1ccc([C@@]23Oc4cc(OCCCC(O)CO)cc(OC)c4[C@]2(O)[C@@H]2OC(=O)N[C@@H]2[C@H]3c2ccccc2)cc1` (mixture of isomers) [Compound 41, rac-(3aR,4R,4aR,9bS,9cR)-7-((4,5-dihydroxypentyl)oxy)-9b-hydroxy-9-methoxy-4a-(4-methoxyphenyl)-4-phenyl-3,3a,4,4a,9b,9c-hexahydro-2H-benzofuro[3′,2′:3,4]cyclopenta[1,2-d]oxazol-2-one], the 50% effective concentration (EC50) in data set [1] was 4.2 nM.
